Type in all cases: cell-based
In data set [1] the test system is primary human nasal epithelial cells. Nature of the data set: Toxicity measurement (WST-1 conversion). The arrangement: Toxicity: key to the marks not given beside the values. The method, then: The cytotoxic effect of all peptides was determined as previously described (2) using primary human nasal epithelial cells, obtained by nasal brushing of healthy individuals.
Cells were grown to confluence in 96-well plates in Bronchial Epithelial Cell Growth Medium (BEPC, Lonza) at 37° C. and 5% CO2. Peptides were diluted in the same medium to a final concentration of 5 μM and applied to the washed (PBS, twice) cells and incubated for 3 hours or 24 hours at 37° C. After incubation, the medium was removed, cells were washed twice (PBS) and fresh BEPC containing 10% (v/v) cell proliferation reagent WST-1 (Roche) was added to each well.
Conversion of WST-1 is indicative for cell viability and reduced conversion by cells is a measure for cytotoxic effects exerted by peptides. After incubation for 30 minutes at 37° C. the absorbance of each well was measured at 450 nm and 650 nm (reference wavelength). Controls included cells exposed to peptide-free medium (set to 100% WST-1 conversion) and wells without cells (background). Results are based upon 5 individual experiments and defined as follows: “0”, no toxicity; “+”, weakly toxic; “++”, moderately toxic; “+++”, toxic; “++++”, very toxic.
A general note: Tetrazolium dyes change colour on reduction, which living cells bring about.

The test system of data set [2] is Pseudomonas aeruginosa. The following applies: 18 h. The method, then:
(§1) Bacteria (2×10E6 CFU/ml) were suspended in MHB+0.9% NaCl and were mixed 1:1 (vol/vol) with peptides dissolved in the same medium in various concentrations (final conc. 0-10 μM) and added to Bioscreen C analyzer plates (Oy Growth Curves Ab Ltd., Helsinki, Finland) and incubated for 18 h at 37° C. while shaking (200 rpm) in a Bioscreen C analyzer (Oy Growth Curves Ab Ltd). The OD (600 nm) was measured every 15 min. Minimal Inhibitory Concentrations (MIC values) were assessed for each peptide.

Data set [3] has as its system Staphylococcus aureus. The following applies: 18 h. The method, then: as §1

Read-outs that look alike come from different tables or passages of the source. Where no end group is shown, it is not given here.

As to `CC[C@H](C)[C@H](NC(=O)[C@H](CCCCN)NC(=O)[C@H](CCC(=O)O)NC(=O)[C@H](CCCCN)NC(=O)[C@H](CO)NC(=O)[C@H](CCCCN)NC(=O)[C@H](CCCNC(=N)N)NC(=O)[C@H](Cc1ccccc1)NC(=O)[C@H](Cc1ccccc1)NC(=O)[C@H](CC(=O)O)NC(=O)CNC(=O)[C@H](CC(C)C)NC(=O)[C@@H](N)CC(C)C)C(=O)NCC(=O)N[C@@H](CCCCN)C(=O)N[C@@H](CCC(=O)O)C(=O)N[C@@H](Cc1ccccc1)C(=O)N[C@@H](CCCCN)C(=O)N[C@@H](CCCNC(=N)N)C(=O)N[C@H](C(=O)N[C@H](C(=O)N[C@@H](CCC(N)=O)C(=O)N[C@@H](CCCNC(=N)N)C(=O)N[C@H](C(=O)N[C@@H](CCCCN)C(=O)N[C@@H](CC(=O)O)C(=O)N[C@@H](Cc1ccccc1)C(=O)N[C@@H](CC(C)C)C(=O)N[C@@H](CCCNC(=N)N)C(=O)N[C@@H](CC(N)=O)C(=O)N[C@@H](CC(C)C)C(=O)N[C@H](C(=O)N1CCC[C@H]1C(=O)N[C@@H](CCCNC(=N)N)C(=O)N[C@H](C(=O)N[C@@H](CCC(=O)O)C(=O)N[C@@H](CO)C(N)=O)[C@@H](C)O)C(C)C)[C@@H](C)CC)C(C)C)[C@@H](C)CC` [SEQ ID NO: 1], the Toxicity entry in data set [1] (peptide 5 μM, 3 hours or 24 hours, WST-1 conversion) is “++”. Besides, in data set [1] (primary human nasal epithelial cells), the “toxicity, in words” value is recorded as “more toxic”.
As to “APKAMRRWVQRWIRRWRPKVFQVTGSSA-NH2 [SEQ ID NO: 22]”, the “Bioscreen MIC values Pseudomonas aeruginosa” value in data set [2] worked out at 10 µM. Also, the “Bioscreen MIC values Staphylococcus aureus” value in data set [3] is >10 µM.
For “APKAMRRWVQRWIRRWRPKVLLHYPSQKF-NH2 [SEQ ID NO: 23]”, in that order: 2.5 µM and >10 µM.
The like results for “APKAMRRWVQRWIRRWRPKVLQKKGI-NH2 [SEQ ID NO: 18]” were, in that order, 5 µM and >10 µM.
The like results for “APKAMRRWVQRWIRRWRPKVLQKNNYL-NH2 [SEQ ID NO: 21]” were, in that order, 2.5 µM and >10 µM.
Turning to “APKAMRRWVQRWIRRWRPLQKKGI-NH2 [SEQ ID NO: 20]”, the “Bioscreen MIC values Pseudomonas aeruginosa” value in data set [2] came out at 10 µM. Moreover, the “Bioscreen MIC values Staphylococcus aureus” value in data set [3] is >10 µM.
The like results for “APKAMRRWVQRWIRRWRPRLQKKGI-NH2 [SEQ ID NO: 19]” were, in that order, 5 µM and >10 µM.
The like results for “APKAMRRWVQRWIRRWRPRV-NH2 [SEQ ID NO: 17]” were, in that order, 5 µM and >10 µM.
Turning to “APKAMRWVQRWIRRWRPKLQKKGI-NH2 [SEQ ID NO: 26]”, the “Bioscreen MIC values Pseudomonas aeruginosa” value in data set [2] is 10 µM. In data set [3], the “Bioscreen MIC values Staphylococcus aureus” value was >10 µM.
Consider “APKAMWVQRWIRRWRPLQKKGI-NH2 [SEQ ID NO: 27]”, for which, in data set [2], the “Bioscreen MIC values Pseudomonas aeruginosa” value is >10 µM. Also, the “Bioscreen MIC values Staphylococcus aureus” value in data set [3] was >10 µM. For the same compound, the “toxicity, in words” value in data set [1] is reported as “weakly toxic”.
Consider “RFGRFLRKIRRFRPKVTITIQGSARF-NH2 [SEQ ID NO: 2, reference compound]”, for which, in data set [2], the “Bioscreen MIC values Pseudomonas aeruginosa” value turned out to be 1.25 µM. Further, the “Bioscreen MIC values Staphylococcus aureus” value in data set [3] was 1.25 µM. Moreover, the “toxicity, in words” value in data set [1] is reported as “extremely toxic”.
In the case of “RRWVQRWIRRWRKVAAARRWVQRWIRRWRPKV-NH2 [SEQ ID NO: 13]”, the “Bioscreen MIC values Pseudomonas aeruginosa” value in data set [2] turned out to be 1.25 µM. The “Bioscreen MIC values Staphylococcus aureus” value in data set [3] was 1.25 µM.
For “RRWVQRWIRRWRKWV-NH2 [SEQ ID NO: 7, RRWVQRWIRRWRKWV]”, the “Bioscreen MIC values Pseudomonas aeruginosa” value in data set [2] amounted to 1.25 µM. The “Bioscreen MIC values Staphylococcus aureus” value in data set [3] is 2.5 µM.
As to “RRWVQRWIRRWRPK-NH2 [SEQ ID NO: 8, RRWVQRWIRRWRPK]”, the “Bioscreen MIC values Pseudomonas aeruginosa” value in data set [2] was found to be 10 µM. Further, the “Bioscreen MIC values Staphylococcus aureus” value in data set [3] was >10 µM.
For “RRWVQRWIRRWRPKLQKKGI-NH2 [SEQ ID NO: 16]”, in that order: 10 µM and >10 µM.
With “RRWVQRWIRRWRPKRIVQRIKDFLRNLV-NH2 [SEQ ID NO: 11]”, the “Bioscreen MIC values Pseudomonas aeruginosa” value in data set [2] was determined as 1.25 µM. Also, the “Bioscreen MIC values Staphylococcus aureus” value in data set [3] worked out at 2.5 µM.
Consider “RRWVQRWIRRWRPKVAAARRWV-NH2 [SEQ ID NO: 10]”, for which, in data set [2], the “Bioscreen MIC values Pseudomonas aeruginosa” value stood at 1.25 µM. Moreover, in data set [3], the “Bioscreen MIC values Staphylococcus aureus” value stood at 10 µM.
The like results for “RRWVQRWIRRWRPKVAAARRWVQRWIRRWRPKV-NH2 [SEQ ID NO: 12]” were, in that order, 1.25 µM and 1.25 µM.
The like results for “RRWVQRWIRRWRPKVLQKKGI-NH2 [SEQ ID NO: 14]” were, in that order, 10 µM and >10 µM.
The like results for “RRWVQRWIRRWRPKW-NH2 [SEQ ID NO: 9, RRWVQRWIRRWRPKW]” were, in that order, 5 µM and 10 µM.
“RRWVQRWIRRWRPWV-NH2 [SEQ ID NO: 6, RRWVQRWIRRWRPWV]”: in data set [2], the “Bioscreen MIC values Pseudomonas aeruginosa” value came out at 2.5 µM. In addition, in data set [3], the “Bioscreen MIC values Staphylococcus aureus” value came out at 10 µM.
The like results for “RRWVRRWIRRWRPKV-NH2 [SEQ ID NO: 25, RRWVRRWIRRWRPKV]” were, in that order, 5 µM and >10 µM.

The values are drawn from US11130781B2, “Antimicrobial peptides and their use” (UNIVERSITEIT UTRECHT HOLDING B.V., priority 2017, dated 2021).
